Among the data in patent publication US10479780B2, “Aminopyrazole derivatives” (Chugai Seiyaku Kabushiki Kaisha, priority 2015, dated 2019) are IC50 values, retold here.

Molecules are shown by their SMILES. Where two headings read alike, the source gives them in different places.

Holding throughout (assay type): biochemical
Assay [1] addresses T1, human Src enzyme (Homo sapiens, UniProt P12931).
T1 construct: purchased Carna Biosciences, Inc. 08-173
Briefly: Src enzyme inhibitory activity (time-resolved fluorometry, biotinylated peptide phosphorylation). To be noted: read-out: SRC_IC50. The essentials:
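Compounds were tested for blocking tyrosine phosphorylation of a biotinylated peptide substrate by recombinant human Src. Phosphorylated product was quantified by time-resolved fluorometry using europium cryptate and XL665 conjugates, and IC50 was calculated against the compound-free control.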

The target in assay [2] is T2, human Yes1 enzyme (Homo sapiens, UniProt P07947).
T2 construct: made in house
The assay can be described thus: Yes1 enzyme inhibitory activity (time-resolved fluorometry, biotinylated peptide phosphorylation). To be noted: read-out: YES_IC50. The essentials:
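Inhibition was expressed against a compound-free control to give IC50, using TR-FRET read-out (Eu-cryptate anti-pTyr antibody, streptavidin-XL665).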

The target of assay [3] is T3, human Lck enzyme (Homo sapiens, UniProt P06239).
T3 construct: purchased Carna Biosciences, Inc. 08-170
Briefly: Lck enzyme inhibitory activity (time-resolved fluorometry, biotinylated peptide phosphorylation). To be noted: read-out: LCK_IC50. In outline:
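Readout pairs a europium cryptate-labelled anti-phosphotyrosine antibody with XL665-streptavidin, measured by time-resolved fluorescence. IC50 derived from percent inhibition against untreated controls.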

[4] abbreviates: biotinylated peptide phosphorylation.

T2 sequence (P07947 whole entry): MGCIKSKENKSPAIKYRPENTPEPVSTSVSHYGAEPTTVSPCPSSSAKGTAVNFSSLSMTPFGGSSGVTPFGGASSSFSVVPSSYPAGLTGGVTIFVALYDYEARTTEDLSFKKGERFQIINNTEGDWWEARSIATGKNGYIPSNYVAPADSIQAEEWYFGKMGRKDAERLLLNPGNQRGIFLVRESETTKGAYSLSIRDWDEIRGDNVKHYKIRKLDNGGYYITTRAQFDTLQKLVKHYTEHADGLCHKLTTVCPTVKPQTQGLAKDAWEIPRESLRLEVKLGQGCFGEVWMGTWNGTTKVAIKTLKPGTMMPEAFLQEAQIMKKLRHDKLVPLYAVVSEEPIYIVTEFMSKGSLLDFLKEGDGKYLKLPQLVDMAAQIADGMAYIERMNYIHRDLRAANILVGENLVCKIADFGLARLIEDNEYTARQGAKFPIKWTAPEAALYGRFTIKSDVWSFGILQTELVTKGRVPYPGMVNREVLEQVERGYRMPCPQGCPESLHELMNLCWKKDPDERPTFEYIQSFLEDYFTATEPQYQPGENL
T3 sequence (P06239 whole entry): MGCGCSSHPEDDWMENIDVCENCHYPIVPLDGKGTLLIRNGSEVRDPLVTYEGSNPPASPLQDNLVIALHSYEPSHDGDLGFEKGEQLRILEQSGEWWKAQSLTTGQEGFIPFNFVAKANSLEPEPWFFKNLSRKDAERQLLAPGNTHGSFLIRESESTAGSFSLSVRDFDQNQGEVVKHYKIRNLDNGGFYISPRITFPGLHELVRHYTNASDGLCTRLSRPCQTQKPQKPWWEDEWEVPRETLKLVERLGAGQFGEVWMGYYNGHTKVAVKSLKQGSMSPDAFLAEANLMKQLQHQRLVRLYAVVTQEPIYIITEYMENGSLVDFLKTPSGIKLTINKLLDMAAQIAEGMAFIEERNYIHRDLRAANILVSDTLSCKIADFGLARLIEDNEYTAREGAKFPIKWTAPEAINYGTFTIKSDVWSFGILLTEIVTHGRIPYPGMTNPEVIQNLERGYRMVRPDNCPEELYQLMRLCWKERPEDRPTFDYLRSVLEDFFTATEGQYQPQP
T1 sequence (P12931 whole entry): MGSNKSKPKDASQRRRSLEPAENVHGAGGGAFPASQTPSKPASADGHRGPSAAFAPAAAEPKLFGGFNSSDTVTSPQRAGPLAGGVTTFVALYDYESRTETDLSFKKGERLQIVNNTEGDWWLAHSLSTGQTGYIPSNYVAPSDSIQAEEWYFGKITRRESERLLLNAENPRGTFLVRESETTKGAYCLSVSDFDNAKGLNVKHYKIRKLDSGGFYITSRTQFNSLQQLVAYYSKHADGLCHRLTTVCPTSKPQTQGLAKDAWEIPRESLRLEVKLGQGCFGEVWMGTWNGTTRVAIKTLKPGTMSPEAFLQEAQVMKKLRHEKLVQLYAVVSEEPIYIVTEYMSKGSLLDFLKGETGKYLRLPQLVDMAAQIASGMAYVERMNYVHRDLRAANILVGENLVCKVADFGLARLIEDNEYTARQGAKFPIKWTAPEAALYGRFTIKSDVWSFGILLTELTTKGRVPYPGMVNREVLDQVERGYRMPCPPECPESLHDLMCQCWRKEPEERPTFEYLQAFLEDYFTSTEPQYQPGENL

Turning to `COc1cc2cc(C(=O)c3cnn(-c4cnc(Oc5cccc(Cl)c5)cc4C)c3N)[nH]c2cc1NS(C)(=O)=O` [Example 4-1-011, N-[2-[5-amino-1-[6-(3-chlorophenoxy)-4-methylpyridin-3-yl]pyrazole-4-carbonyl]-5-methoxy-1H-indol-6-yl]methanesulfonamide], the IC50 in assay [1] (setting [4]) came out at 170 nM; in assay [2] (setting [4]), 5.5 nM; in assay [3] (setting [4]) it was 41 nM.

On to `Cc1cc(Oc2cccc(F)c2F)ncc1-n1ncc(C(=O)c2cc3cc(F)c(NS(C)(=O)=O)cc3[nH]2)c1N` [Example 4-2-032, N-[2-[5-amino-1-[6-(2,3-difluorophenoxy)-4-methylpyridin-3-yl]pyrazole-4-carbonyl]-5-fluoro-1H-indol-6-yl]methanesulfonamide], for which the IC50 worked out at 92 nM in assay [1] (setting [4]), 3.5 nM in assay [2] (setting [4]) and 27 nM in assay [3] (setting [4]).

As for `Cc1cc2cc(C(=O)c3cnn(-c4cnc(Oc5ccccc5F)cc4C)c3N)[nH]c2cc1NS(=O)(=O)c1cccc(Cl)c1` [Example 5-1-464, N-[2-[5-amino-1-[6-(2-fluorophenoxy)-4-methylpyridin-3-yl]pyrazole-4-carbonyl]-5-methyl-1H-indol-6-yl]-3-chlorobenzenesulfonamide], the IC50 came to 1200 nM in assay [1] (setting [4]), 9.3 nM in assay [2] (setting [4]) and 310 nM in assay [3] (setting [4]).

`Cc1cc(Oc2ccccc2F)ccc1-n1ncc(C(=O)c2cc3cc(F)c(NS(=O)(=O)CC(=O)NC(C)C)cc3[nH]2)c1N` [Example 4-10-002, 2-[[2-[5-amino-1-[4-(2-fluorophenoxy)-2-methylphenyl]pyrazole-4-carbonyl]-5-fluoro-1H-indol-6-yl]sulfamoyl]-N-propan-2-ylacetamide]: the values for the IC50 in assay [1] (setting [4]), in assay [2] (setting [4]) and in assay [3] (setting [4]) were 27 nM, 0.77 nM and 11 nM, respectively.

Take `Cc1cc2cc(C(=O)c3cnn(-c4ccc(Oc5ccccc5F)cc4C)c3N)[nH]c2cc1N1CCCS1(=O)=O` [Example 4-2-112, [5-amino-1-[4-(2-fluorophenoxy)-2-methylphenyl]pyrazol-4-yl]-[6-(1,1-dioxo-1,2-thiazolidin-2-yl)-5-methyl-1H-indol-2-yl]methanone]: the results for the IC50 in assay [1] (setting [4]), in assay [2] (setting [4]) and in assay [3] (setting [4]) were 23 nM, 0.93 nM and 8.3 nM, respectively.

Regarding `CC(C)N1CCC(c2cc3[nH]c(C(=O)c4cnn(-c5ccc(Oc6cccc(F)c6F)cc5)c4N)cc3cc2F)CC1` [Example 5-1-013, [5-amino-1-[4-(2,3-difluorophenoxy)phenyl]pyrazol-4-yl]-[5-fluoro-6-(1-propan-2-ylpiperidin-4-yl)-1H-indol-2-yl]methanone], the IC50 in assay [1] worked out at 30 nM; in assay [2] it was 1.6 nM; in assay [3], 2.5 nM.

On to `COc1cc2cc(C(=O)c3cnn(-c4cnc(Oc5c(F)cccc5F)cc4C)c3N)[nH]c2cc1NS(=O)(=O)CCCF` [Example 4-19-001, N-(2-(5-amino-1-(6-(2,6-difluorophenoxy)-4-methylpyridin-3-yl)-1H-pyrazole-4-carbonyl)-5-methoxy-1H-indol-6-yl)-3-fluoropropane-1-sulfonamide], for which the IC50 in assay [1] (setting [4]) was found to be 28 nM; in assay [2] (setting [4]) it was 0.83 nM; in assay [3] (setting [4]), 3.9 nM.

Consider `Cc1cc(Oc2ccccc2F)ccc1-n1ncc(C(=O)c2cc3cc(C(C)C)c(N)cc3[nH]2)c1N` [Example 5-1-266, [5-amino-1-[4-(2-fluorophenoxy)-2-methylphenyl]pyrazol-4-yl]-(6-amino-5-propan-2-yl-1H-indol-2-yl)methanone], for which the IC50 in assay [1] is 11 nM; in assay [2] it was 2.1 nM; in assay [3] it was 11 nM.

`Cc1cc(Oc2ccccc2F)ccc1-n1ncc(C(=O)c2cc3cc(F)c(N4C(=O)NC5(CCCCC5)C4=O)cc3[nH]2)c1N` [Example 5-1-450, 3-[2-[5-amino-1-[4-(2-fluorophenoxy)-2-methylphenyl]pyrazole-4-carbonyl]-5-fluoro-1H-indol-6-yl]-1,3-diazaspiro[4.5]decane-2,4-dione]: the IC50 stood at 150 nM in assay [1] (setting [4]), 3 nM in assay [2] (setting [4]) and 22 nM in assay [3] (setting [4]).

For `Cc1cc(Oc2ccccc2F)ccc1-n1ncc(C(=O)c2cc3cc(OCC(F)F)c(N4C(=O)N[C@@H](Cc5ccc(O)cc5)C4=O)cc3[nH]2)c1N` [Example 5-1-251, (5S)-3-[2-[5-amino-1-[4-(2-fluorophenoxy)-2-methylphenyl]pyrazole-4-carbonyl]-5-(2,2-difluoroethoxy)-1H-indol-6-yl]-5-[(4-hydroxyphenyl)methyl]imidazolidine-2,4-dione], the IC50 in assay [1] is 25 nM; in assay [2] it was 3.8 nM; in assay [3] it was 15 nM.

Regarding `Cc1cc(Oc2c(F)cccc2F)ncc1-n1ncc(C(=O)c2cc3cc(F)c(N4CCCC4=O)cc3[nH]2)c1N` [Example 5-1-098, 1-[2-[5-amino-1-[6-(2,6-difluorophenoxy)-4-methylpyridin-3-yl]pyrazole-4-carbonyl]-5-fluoro-1H-indol-6-yl]pyrrolidin-2-one], the IC50 in assay [1] came to 15 nM; in assay [2], 1.9 nM; in assay [3], 1.4 nM.

For `Cc1cc(Oc2ccccc2F)ccc1-n1ncc(C(=O)c2cc3cc(F)c(NS(=O)(=O)c4cccc(F)n4)cc3[nH]2)c1N` [Example 5-1-517, N-[2-[5-amino-1-[4-(2-fluorophenaxy)-2-methylphenyl]pyrazole-4-carbonyl]-5-fluoro-1H-indol-5-yl]-6-fluoropyridine-2-sulfonamide], the IC50 is 300 nM in assay [1] (setting [4]), 2.1 nM in assay [2] (setting [4]) and 34 nM in assay [3] (setting [4]).

For `Cc1cc(Oc2ccccc2F)cc(F)c1-n1ncc(C(=O)c2cc3cc(OCC(F)F)c(N4CCOCC4)cc3[nH]2)c1N` [Example 4-25-021, [5-amino-1-[2-fluoro-4-(2-fluorophenoxy)-6-methylphenyl]pyrazol-4-yl]-[5-(2,2-difluoroethoxy)-6-morpholin-4-yl-1H-indol-2-yl]methanone], the values for the IC50 in assay [1] (setting [4]), in assay [2] (setting [4]) and in assay [3] (setting [4]) were 16 nM, 2.1 nM and 4.6 nM, respectively.

For the compound `Cc1cc(Oc2cccc(Cl)c2)ncc1-n1ncc(C(=O)c2cc3cc(F)c(NS(=O)(=O)C4CC4)cc3[nH]2)c1N` [Example 4-7-016, N-[2-[5-amino-1-[6-(3-chlorophenoxy)-4-methylpyridin-3-yl]pyrazole-4-carbonyl]-5-fluoro-1H-indol-6-yl]cyclopropanesulfonamide], the IC50 in assay [1] (setting [4]) was 210 nM; in assay [2] (setting [4]) it was 4.6 nM; in assay [3] (setting [4]), 110 nM.

For the compound `Cc1cc(Oc2cccc(F)c2F)ccc1-n1ncc(C(=O)c2cc3cc(F)c(NS(C)(=O)=O)cc3[nH]2)c1N` [Example 4-2-029, N-[2-[5-amino-1-[4-(2,3-difluorophenoxy)-2-methylphenyl]pyrazole-4-carbonyl]-5-fluoro-1H-indol-6-yl]methanesulfonamide], the IC50 in assay [1] (setting [4]) worked out at 28 nM; in assay [2] (setting [4]) it was 0.64 nM; in assay [3] (setting [4]), 5.5 nM.

As to `Cc1cc(Oc2ccccc2F)ccc1-n1ncc(C(=O)c2cc3cc(F)c(NS(=O)(=O)C4(CC(O)CO)CC4)cc3[nH]2)c1N` (stereo not drawn) [Example 4-8-001, N-{2-{5-amino-1-[4-(2-fluorophenoxy)-2-methylphenyl]pyrazole-4-carbonyl}-5-fluoro-1H-indol-6-yl}-1-(2,3-dihydroxypropyl)cyclopropane-1-sulfonamide], the IC50 worked out at 31 nM in assay [1] (setting [4]), 1.1 nM in assay [2] (setting [4]) and 14 nM in assay [3] (setting [4]).

Turning to `Cc1cc(Oc2ccccc2F)cc(F)c1-n1ncc(C(=O)c2cc3cc(OC(F)F)c(N4CCOC4=O)cc3[nH]2)c1N` [Example 4-25-019, 3-[2-[5-amino-1-[2-fluoro-4-(2-fluorophenoxy)-6-methylphenyl]pyrazole-4-carbonyl]-5-(difluoromethoxy)-1H-indol-6-yl]-1,3-oxazolidin-2-one], the IC50 is 43 nM in assay [1] (setting [4]), 5.2 nM in assay [2] (setting [4]) and 13 nM in assay [3] (setting [4]).

For `Cc1cc(Oc2cccc(F)c2F)ccc1-n1ncc(C(=O)c2cc3cc(Cl)c(NS(C)(=O)=O)cc3[nH]2)c1N` [Example 4-2-078, N-[2-[5-amino-1-[4-(2,3-difluorophenoxy)-2-methylphenyl]pyrazole-4-carbonyl]-5-chloro-1H-indol-6-yl]methanesulfonamide], the IC50 was 91 nM in assay [1] (setting [4]), 5.9 nM in assay [2] (setting [4]) and 50 nM in assay [3] (setting [4]).

On to `Cc1cc(Oc2ccccc2F)ncc1-n1ncc(C(=O)c2cc3cc(F)c(NS(=O)(=O)c4cncc(Cl)c4)cc3[nH]2)c1N` [Example 5-1-544, N-[2-[5-amino-1-[6-(2-fluorophenoxy)-4-methylpyridin-3-yl]pyrazole-4-carbonyl]-5-fluoro-1H-indol-6-yl]-5-chloropyridine-3-sulfonamide], for which the IC50 in assay [1] (setting [4]) is 680 nM; in assay [2] (setting [4]), 8.4 nM; in assay [3] (setting [4]) it was 330 nM.

`CC(=O)N1CCC(c2cc3[nH]c(C(=O)c4cnn(-c5ccc(Oc6ccccc6F)cc5C)c4N)cc3cc2C)CC1` [Example 5-1-132, 1-[4-[2-[5-amino-1-[4-(2-fluorophenoxy)-2-methylphenyl]pyrazole-4-carbonyl]-5-methyl-1H-indol-6-yl]piperidin-1-yl]ethanone]: the values for the IC50 in assay [1], in assay [2] and in assay [3] were 6.6 nM, 0.71 nM and 3.3 nM, respectively.

Turning to `Cc1cc(Oc2ccccc2F)ccc1-n1ncc(C(=O)c2cc3cc(F)c(NS(C)(=O)=O)cc3[nH]2)c1N` [Example 4-1-002, N-[2-[5-amino-1-[4-(2-fluorophenoxy)-2-methylphenyl]pyrazole-4-carbonyl]-5-fluoro-1H-indol-6-yl]methanesulfonamide], the figures for the IC50 in assay [1] (setting [4]), in assay [2] (setting [4]) and in assay [3] (setting [4]) were 21 nM, 0.52 nM and 7.6 nM, respectively.
